Each structure is given as a SMILES string. pKi: −log10 of the molar value. Numbered stars: 1 amine (or outer) side, 2 acyl side, 3 side chain; on linkers, the order of the positions; unused ones are H or OH. Square brackets hold non-standard residues; d marks the D form. Peptide text beside a SMILES is read from it. X6 = CN(C)C[C@H]1C=NN([*:1])[C@H](C(=O)[*:2])C1; X5 = O=C1CC[C@@H](C(=O)[*:2])N([*:1])N1; dPiz(1,6-dehydro) = O=C(O)[C@H]1CCC=NN1; X2 = CN1CCC[C@@H](C(=O)[*:2])N1[*:1]; X1 = CN1CCC[C@H](C(=O)[*:2])N1[*:1]; X7 = O=C([C@@H]1C=CC=NN1[*:1])[*:2]; X3 = O=C([C@H]1CCCNN1[*:1])[*:2]; dNMeF = CN[C@H](Cc1ccccc1)C(=O)O

This passage reports Ki results from BindingDB's records for doi:10.1021/jm00171a003 (Merck, 1990).

The target in test [1] is Vasopressin V1a receptor (Rattus norvegicus) (UniProt P30560). Description: Binding affinity against Vasopressin receptor in rat liver.
Vasopressin V1a receptor (Rattus norvegicus), sequence (P30560 whole entry, looked up): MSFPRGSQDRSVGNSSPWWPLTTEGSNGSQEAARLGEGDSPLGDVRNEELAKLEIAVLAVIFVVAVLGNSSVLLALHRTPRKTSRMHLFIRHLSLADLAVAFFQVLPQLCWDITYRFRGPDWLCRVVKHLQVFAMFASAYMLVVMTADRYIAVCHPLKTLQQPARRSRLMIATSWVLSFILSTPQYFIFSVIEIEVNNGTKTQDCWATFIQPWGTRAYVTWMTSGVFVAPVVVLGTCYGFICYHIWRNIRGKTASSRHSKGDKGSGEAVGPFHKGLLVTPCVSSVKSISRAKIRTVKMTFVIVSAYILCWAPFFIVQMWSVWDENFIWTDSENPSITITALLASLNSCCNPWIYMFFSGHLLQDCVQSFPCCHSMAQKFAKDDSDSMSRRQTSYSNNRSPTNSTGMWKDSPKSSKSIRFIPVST
Test [2] has the same target. Described as above. The source holds these as a separate data set.

Take `CC[C@@H](C)[C@@H]1NC(=S)[C@@H](Cc2ccccc2)NC(=O)[C@@H]2CCCN2C(=O)[C@@H](Cc2ccccc2)N(C)C(=O)[C@@H]2CCC=NN2C(=O)[C@H]2CCC=NN2C1=O`: the pKi (in general, −log10 of the Ki, conventionally taken in molar units) in test [1] was 6.85.

As for `CC[C@H](C)[C@H]1C(=O)N2NCCC[C@@H]2C(=O)N2NCCC[C@H]2C(=O)N(C)[C@H](Cc2ccccc2)C(=O)N2CCC[C@H]2C(=O)N[C@H](Cc2ccccc2)C(=O)N1O`, the pKi in test [2] was 5.66.

As to `CC[C@H](C)[C@@H]1NC[C@@H](Cc2ccccc2)NC(=O)[C@@H]2CCCN2C(=O)[C@@H](Cc2ccccc2)N(C)C(=O)[C@@H]2CCC=NN2C(=O)[C@H]2CCC=NN2C1=O`, in test [2], the pKi was less than 4.52.

In the case of `CC[C@H](C)[C@@H]1NC(=O)[C@@H](Cc2ccccc2)NC(=O)[C@@H]2CCCN2C(=O)[C@@H](Cc2ccccc2)N(C)C(=O)[C@@H]2CCCN(C)N2C(=O)[C@H]2CCCN(C)N2C1=O` (cyclo(I[X1][X2][dNMeF]P[dF])), the pKi in test [2] was 5.13.

The compound `CC[C@H](C)[C@@H]1NC(=O)[C@@H](Cc2ccccc2)NC(=O)[C@@H]2CCCN2C(=O)[C@@H](Cc2ccccc2)N(C)C(=O)[C@@H]2CCC(=O)NN2C(=O)[C@H]2CCCNN2C1=O` (cyclo(I[X3][X5][dNMeF]P[dF])) had a pKi in test [1] of 5.41.

As to `CC[C@H](C)[C@@H]1NC(=O)[C@@H](Cc2ccccc2)NC(=O)[C@@H]2CCCN2C(=O)[C@@H](Cc2ccccc2)N(C)C(=O)[C@@H]2CCC(=O)NN2C(=O)[C@H]2CCC=NN2C1=O` (cyclo(I[dPiz(1,6-dehydro)][X5][dNMeF]P[dF])), the pKi in test [1] was 5.80. Compared with the last compound, the pKi is 0.39 log units higher.

Regarding `CC[C@H](C)[C@@H]1NC(=O)[C@@H](Cc2ccccc2)NC(=O)[C@@H]2CCCN2C(=O)[C@@H](Cc2ccccc2)N(C)C(=O)[C@@H]2C[C@@H](CN(C)C)C=NN2C(=O)[C@H]2CCC=NN2C1=O` (cyclo(I[dPiz(1,6-dehydro)][X6][dNMeF]P[dF])), the pKi in test [2] is 6.26.

On to `CC[C@H](C)[C@@H]1NC(=O)[C@@H](Cc2ccccc2)NC(=O)[C@@H]2CCCN2C(=O)[C@@H](Cc2ccccc2)N(C)C(=O)[C@@H]2C=CC=NN2C(=O)[C@H]2CCC=NN2C1=O` (cyclo(I[dPiz(1,6-dehydro)][X7][dNMeF]P[dF])), for which, in test [2], the pKi is 6.41. The pKi values of the last two compounds are within 0.2 log units of each other.
